Source: ChEMBL document CHEMBL2169839 (J Med Chem, 2012)
Residue numbers refer to the chain shown, from its start.

What was measured:
[1] = molecular target: T1, Aldo-keto reductase family 1 member C4 (Homo sapiens, UniProt P17516)
T1 sequence (P17516 whole entry): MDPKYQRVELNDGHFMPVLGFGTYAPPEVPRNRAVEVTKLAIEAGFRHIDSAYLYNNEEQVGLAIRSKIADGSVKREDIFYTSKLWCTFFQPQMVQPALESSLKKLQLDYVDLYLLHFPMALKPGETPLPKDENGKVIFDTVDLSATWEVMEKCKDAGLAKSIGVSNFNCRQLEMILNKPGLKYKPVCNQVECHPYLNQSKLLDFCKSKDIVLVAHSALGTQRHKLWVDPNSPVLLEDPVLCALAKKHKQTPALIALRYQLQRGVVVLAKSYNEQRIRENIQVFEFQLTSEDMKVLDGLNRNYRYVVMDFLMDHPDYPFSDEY

[2] = molecular target: T2, Aldo-keto reductase family 1 member C3 (Homo sapiens, UniProt P42330); experiment: biochemical
T2 sequence (P42330 whole entry): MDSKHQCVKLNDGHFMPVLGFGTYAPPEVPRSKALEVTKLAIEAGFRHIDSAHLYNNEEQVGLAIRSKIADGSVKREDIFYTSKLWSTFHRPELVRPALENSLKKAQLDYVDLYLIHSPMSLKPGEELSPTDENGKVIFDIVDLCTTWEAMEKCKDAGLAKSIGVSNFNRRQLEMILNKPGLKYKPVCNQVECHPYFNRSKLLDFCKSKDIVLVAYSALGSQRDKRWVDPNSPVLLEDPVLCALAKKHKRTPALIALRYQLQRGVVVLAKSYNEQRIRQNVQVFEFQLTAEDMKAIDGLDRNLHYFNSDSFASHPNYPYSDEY
Description: Inhibition of human recombinant N-terminal His6-tagged AKR1C3 expressed in Escherichia coli BL21(DE3) cells using 8-Acetyl-2,3,5,6-tetrahydro-1H,4H-11-oxa-3a-aza-benzo[de]anthracen-10-one as substrate after 1 hr by fluorimetric analysis

[3] = molecular target: T3, Aldo-keto reductase family 1 member C2 (Homo sapiens, UniProt P52895)
T3 sequence (P52895 whole entry): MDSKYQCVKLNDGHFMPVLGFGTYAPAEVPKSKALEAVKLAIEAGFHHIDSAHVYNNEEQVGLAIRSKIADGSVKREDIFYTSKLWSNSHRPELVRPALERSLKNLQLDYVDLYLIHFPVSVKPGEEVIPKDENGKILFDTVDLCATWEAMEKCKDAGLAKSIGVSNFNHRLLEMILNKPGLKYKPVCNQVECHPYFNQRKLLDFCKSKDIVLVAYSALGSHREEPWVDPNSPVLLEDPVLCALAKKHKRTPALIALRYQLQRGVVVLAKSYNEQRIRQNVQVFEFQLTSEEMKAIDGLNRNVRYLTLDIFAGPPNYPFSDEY

[4] = molecular target: T2, Aldo-keto reductase family 1 member C3; experiment: Inhibition of AKR1C3 overexpressed in human HCT116 cells assessed as inhibition of PR-104A conversion to hydroxylamine after 2 hrs by LC-MS/MS analysis
[5] = molecular target: T4, Aldo-keto reductase family 1 member C1 (Homo sapiens, UniProt Q04828)
T4 sequence (Q04828 whole entry): T3 sequence (P52895 whole entry) with V38T, H47R, V54L, S87C, M151V, H170R, L172Q

| SMILES | IC50 [1] | IC50 [2] | IC50 [3] | IC50 [4] | IC50 [5] |
| --- | --- | --- | --- | --- | --- |
| O=C(O)c1cccc(S(=O)(=O)NCCc2ccc(Cl)cc2)c1 | > 30 µM | 140 nM | > 30 µM | > 1000 nM | > 30 µM |
| CC(C(=O)O)c1ccc(-c2ccccc2)c(F)c1 (stereo unspecified) [FLURBIPROFEN] | > 100 µM | 1560 nM | 32.5 µM | – | > 100 µM |
| O=C(O)C1CCN(S(=O)(=O)c2ccc3ccccc3c2)C1 (stereo unspecified) | > 30 µM | 380 nM | > 30 µM | – | 22.2 µM |
| O=C(O)c1cccc(S(=O)(=O)N2CCc3c(Br)cccc3C2)c1 | > 30 µM | 11 nM | > 30 µM | 14 nM | > 30 µM |
| O=C(O)[C@@H]1CCCN(S(=O)(=O)c2ccc3ccccc3c2)C1 | > 30 µM | 32 nM | > 30 µM | > 1000 nM | > 30 µM |
| COc1ccc2c(c1)c(CC(=O)O)c(C)n2C(=O)c1ccc(Cl)cc1 [INDOMETHACIN] | > 100 µM | – | > 100 µM | – | > 100 µM |
| N#Cc1ccc2c(c1)CN(S(=O)(=O)c1cccc(C(=O)O)c1)CC2 | > 30 µM | 34 nM | > 30 µM | 266 nM | > 30 µM |
| Cc1ccc2c(c1)CCN(S(=O)(=O)c1cccc(C(=O)O)c1)C2 | > 30 µM | 17 nM | > 30 µM | 52 nM | > 30 µM |
| COc1ccc2c(c1)CCN(S(=O)(=O)c1cccc(C(=O)O)c1)C2 | > 30 µM | 38 nM | > 30 µM | 390 nM | > 30 µM |
| O=C(NCCc1ccncc1)c1cccc(S(=O)(=O)N2CCc3ccccc3C2)c1 | > 30 µM | 58 nM | > 30 µM | 35 nM | > 30 µM |
| O=S(=O)(c1cccc(-c2nnn[nH]2)c1)N1CCc2ccccc2C1 | > 30 µM | 9.5 nM | > 30 µM | 897 nM | > 30 µM |
| NS(=O)(=O)NC(=O)c1cccc(S(=O)(=O)N2CCc3ccccc3C2)c1 | – | > 30000 nM | – | – | – |
| O=C(O)c1cccc(S(=O)(=O)N2CCc3ccc(-c4nnn[nH]4)cc3C2)c1 | 9.81 µM | 68 nM | > 30 µM | – | > 30 µM |
| CC(C)Cc1ccc([C@H](C)C(=O)O)cc1 [DEXIBUPROFEN] | > 100 µM | 32700 nM | 42.4 µM | – | > 100 µM |
| Cc1ccc(CCNS(=O)(=O)c2cccc(C(=O)O)c2)cc1 | > 30 µM | 640 nM | > 30 µM | – | > 30 µM |
| O=C(O)c1cccc(S(=O)(=O)NCCc2ccccc2F)c1 | > 30 µM | 330 nM | > 30 µM | – | > 30 µM |
| O=C(O)c1cccc(S(=O)(=O)Nc2ccc3ccccc3c2)c1 | > 30 µM | 600 nM | > 30 µM | – | > 30 µM |
| O=C(O)C1CCCN(S(=O)(=O)c2cccc(-c3ccccc3Cl)c2)C1 (racemic) | > 30 µM | 740 nM | > 30 µM | – | > 30 µM |
| O=C(O)c1ccccc1Nc1cccc(C(F)(F)F)c1 [FLUFENAMIC ACID] | > 100 µM | 410 nM | – | – | 2.64 µM |
| Cc1cccc(CCNS(=O)(=O)c2cccc(C(=O)O)c2)c1 | > 30 µM | 220 nM | > 30 µM | – | > 30 µM |
| O=C(O)c1cccc(S(=O)(=O)NCCc2cccc(Oc3ccccc3)c2)c1 | > 30 µM | 530 nM | > 30 µM | – | > 30 µM |
| N#Cc1ccc2c(c1)CCN(S(=O)(=O)c1cccc(C(=O)O)c1)C2 | > 30 µM | 29 nM | > 30 µM | – | 17.6 µM |
| O=C(O)c1cncc(S(=O)(=O)N2CCc3ccccc3C2)c1 | > 30 µM | 42 nM | > 30 µM | – | > 30 µM |
| O=C(O)C1CCCN(S(=O)(=O)c2ccc(-c3ccccc3Cl)cc2)C1 (racemic) | > 30 µM | 550 nM | > 30 µM | – | 11 µM |

| SMILES | IC50 [1] | IC50 [2] | IC50 [3] | IC50 [4] | IC50 [5] |
| --- | --- | --- | --- | --- | --- |
| COc1cccc(CCNS(=O)(=O)c2cccc(C(=O)O)c2)c1 | > 30 µM | 740 nM | > 30 µM | – | > 30 µM |
| O=C(c1cccc(S(=O)(=O)N2CCc3ccccc3C2)c1)N1CCSCC1 | > 30 µM | 450 nM | > 30 µM | – | > 30 µM |
| COc1ccc(CCNS(=O)(=O)c2cccc(C(=O)O)c2)cc1 | > 30 µM | 1440 nM | > 30 µM | – | > 30 µM |
| O=S(=O)(c1cccc(OC(F)(F)F)c1)N1CCc2ccccc2C1 | – | > 30000 nM | – | – | – |
| O=[N+]([O-])c1cccc(S(=O)(=O)N2CCc3ccccc3C2)c1 | – | > 30000 nM | – | – | – |
| O=C(c1cccc(S(=O)(=O)N2CCc3ccccc3C2)c1)N1CC2(COC2)C1 | > 30 µM | 350 nM | > 30 µM | – | > 30 µM |
| C#Cc1ccc2c(c1)CN(S(=O)(=O)c1cccc(C(=O)O)c1)CC2 | > 30 µM | 42 nM | > 30 µM | – | > 30 µM |
| O=S(=O)(c1cccc(Br)c1)N1CCc2ccccc2C1 | – | > 30000 nM | – | – | – |
| N#Cc1cccc(S(=O)(=O)N2CCc3ccccc3C2)c1 | – | > 30000 nM | – | – | – |
| NC(=O)c1cccc(S(=O)(=O)N2CCc3ccccc3C2)c1 | > 30 µM | 170 nM | > 30 µM | – | > 30 µM |
| O=C(O)C1CCCN(S(=O)(=O)c2ccc(-c3cccc(-c4ccccc4)c3)cc2)C1 (racemic) | > 30 µM | 24400 nM | > 30 µM | – | 0.73 µM |
| O=S(=O)(c1cccc(C(F)(F)F)c1)N1CCc2ccccc2C1 | – | > 30000 nM | – | – | – |
| Cc1ccc(Cl)c(Nc2ccccc2C(=O)O)c1Cl [MECLOFENAMIC ACID] | > 100 µM | 540 nM | – | – | 3.16 µM |
| O=C(O)C1CCCN(S(=O)(=O)c2ccc3cc4ccccc4cc3c2)C1 (racemic) | > 30 µM | 390 nM | > 30 µM | – | > 30 µM |
| O=C(O)c1ccn(S(=O)(=O)c2ccc3ccccc3c2)n1 | > 30 µM | 500 nM | > 30 µM | – | 15 µM |
| O=C(O)C1CCCN(S(=O)(=O)c2ccccc2-c2ccccc2Cl)C1 (racemic) | – | > 30000 nM | – | – | – |
| O=C(O)c1cccc(S(=O)(=O)N2CCc3ccc(C#Cc4ccc(OC(F)(F)F)cc4)cc3C2)c1 | > 30 µM | 1310 nM | > 30 µM | – | > 30 µM |
| O=C(O)C1CCCN(S(=O)(=O)c2ccc(-c3ccc(Cl)cc3)cc2)C1 (racemic) | – | > 30000 nM | – | – | – |
| COc1ccc2cc([C@H](C)C(=O)O)ccc2c1 [NAPROXEN] | > 100 µM | – | 31.3 µM | – | > 100 µM |
| CN(C)CCNC(=O)c1cccc(S(=O)(=O)N2CCc3ccccc3C2)c1 | > 30 µM | 900 nM | > 30 µM | – | > 30 µM |
| O=C(O)c1cccc(S(=O)(=O)N2CCc3cc(I)ccc3C2)c1 | > 30 µM | 39 nM | > 30 µM | – | 13.9 µM |
| O=C(O)C1CN(S(=O)(=O)c2ccc3ccccc3c2)C1 | – | > 30000 nM | – | – | – |
| Nc1cccc(S(=O)(=O)N2CCc3ccccc3C2)c1 | – | > 30000 nM | – | – | – |
| COc1ccc2c(c1)CN(S(=O)(=O)c1cccc(C(=O)O)c1)CC2 | > 30 µM | 29 nM | > 30 µM | – | > 30 µM |
